Tested on: ROS 17/2 cells
Test: Anti-PDGF antibody neutralization in ROS 17/2 cells
Type: cell-based, rat
Conditions: intermediate doses of HBMCM preparations
Description: Anti-PDGF antibody neutralization experiments were carried out with polyclonal antiserum prepared in rabbits against PDGF. PDGF or HBMCM-derived preparations were added to ROS 17/2 cells in the presence or absence of antibody and examined for effects on [^3 H]TdR incorporation.

PDGF was tested, and the “effect of polyclonal anti-PDGF antibodies on mitogenic effect” value was “inhibited PDGF-stimulated replication”.

From US5461034A, “Osteogenic growth polypeptides identified from regenerating bone marrow” (Yissum Research Development Company of the Hebrew …, priority 1993, dated 1995)
